Experiments:
[1] = Pharmacokinetics of prodrug following IV administration to rats; conditions: for Cmax: male, Sprague Dawley, rat, plasma, iv
[2] = In vivo tolerability in rats (intravenous); parameters: species or system rat; conditions: for dose tolerated by rats: IV
Procedure: (§1) Male naïve Sprague-Dawley rats, 4 per dose, were used in the study. Rats were weighed, and then placed under a heat lamp for 15-20 minutes to dilate the lateral tail veins. […] Before dosing, rats were placed in Broome restrainers and the drug was introduced into one of the tail veins using a syringe and needle. […] Blood samples were collected 5 minutes post-dose via the saphenous vein. The rats were observed up to 24 hours.
as §1
The protocol to assess the IV tolerability of Compound AM-3 (lisdexamphetamine) was as described in Examples 9 and 13 above.

[3] = biological target: T1, trypsin (Bos taurus, UniProt P00760); assay: In vitro trypsin conversion of prodrugs to amphetamine and inhibition by trypsin inhibitor; conditions: bovine, trypsin from bovine pancreas; for half-life at 0.761 mM: pH 8; for half-life: pH 8, with Compound 109 (trypsin inhibitor), 2 uM
T1 sequence (P00760 24-246): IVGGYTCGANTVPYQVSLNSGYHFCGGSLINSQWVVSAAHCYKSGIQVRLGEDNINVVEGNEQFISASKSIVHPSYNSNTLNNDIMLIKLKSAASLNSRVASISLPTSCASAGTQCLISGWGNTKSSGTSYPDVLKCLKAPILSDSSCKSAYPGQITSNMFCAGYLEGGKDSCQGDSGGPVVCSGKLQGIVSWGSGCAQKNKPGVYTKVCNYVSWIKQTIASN

[4] = biological target: T2, trypsin from bovine pancreas (Bos taurus, UniProt P00760); assay: as above; conditions: no trypsin inhibitor; 0.761 mM prodrug HCl, 0.0228 mg/ml trypsin, pH 8, 37° C.
T2 sequence (P00760 24-246): T1 sequence (P00760 24-246)

[5] = Pharmacokinetics of prodrug following PO administration to rats; conditions: for Cmax / Tmax: male, Sprague Dawley, rat, plasma, po
[6] = rat plasma, AM-4 PO 24 mg/kg (63 μmol/kg)

CC(=O)N[C@@H](CCCCN)C(=O)N[C@@H](C)Cc1ccccc1 [Compound AM-5, Amphetamine-lysine-acetate]
Cmax ([1]; 4.5 mg/kg): 2150 ± 1700 ng/mL

C[C@@H](Cc1ccccc1)NC(=O)[C@H](CCCNC(=N)N)NC(=O)CC(=O)O [Compound AM-2, N-[4-guanidino-1-((R)-1-methyl-2-phenyl-ethylcarbamoyl)-butyl]-malonic acid]
Cmax ([1]; 6 mg/kg): 2600 ± 260 ng/mL | time to recover to normal activity ([2]; AM-2 IV 155 μmol/kg): ≤ 30 min | dose tolerated by rats [2]: 155 µmol/kg | half-life at 0.761 mM [3]: 59.9 ± 17.1 h | half-life [3]: 68.5 ± 16.4 h | Rate of AMP formation, Ave ± sd [4]: 0.0310 ± 0.0004 umols/h/UBAEE | Cmax ([5]; 27 mg/kg): 811 ± 850 ng/mL | Tmax ([5]; 27 mg/kg): 0.625 ± 0.25 h

C[C@@H](Cc1ccccc1)NC(=O)[C@@H](N)CCCCN [Compound AM-3, lisdexamphetamine, reference compound]
Cmax ([1]; 4.5 mg/kg): 1670 ± 580 ng/mL | time to recover to normal activity ([2]; AM-3 IV 48 μmol/kg): ≤ 120 min | death of the rats ([2]; AM-3 IV 95 μmol/kg): 50% | time to death ([2]; AM-3 IV 95 μmol/kg and 190 μmol/kg): less than 1 min | death of the rats ([2]; AM-3 IV 190 μmol/kg): 100% | Clinical observations ([2]; AM-3 IV 64 mg/kg (190 μmol/kg), 1 rat): Died 10 sec post dose | dose tolerated by rats [2]: 48 µmol/kg | half-life at 0.761 mM [3]: 112 ± 14 h | half-life [3]: 393 ± 431 h | Rate of AMP formation, Ave ± sd [4]: not detectable | Cmax ([5]; 22 mg/kg): 357 ng/mL | Tmax ([5]; 22 mg/kg): 0.625 ± 0.25 h

CC(=O)N[C@@H](CCCNC(=N)N)C(=O)N[C@@H](C)Cc1ccccc1 (stereo in doubt) [Compound AM-1, 2-acetylamino-5-guanidino-pentanoic acid ((R)-1-methyl-2-phenyl-ethyl)-amide]
Cmax ([1]; 5 mg/kg): 3250 ± 310 ng/mL | time to recover to normal activity ([2]; AM-1 IV 87 μmol/kg): ≤ 2 min | dose tolerated by rats [2]: 87 µmol/kg | half-life at 0.761 mM [3]: 39.9 ± 0.5 h | half-life [3]: 54 ± 4.6 h | Rate of AMP formation, Ave ± sd [4]: 0.0455 ± 0.0102 umols/h/UBAEE | Cmax ([5]; 24 mg/kg): 1.28 ± 0.81 ng/mL | Tmax ([5]; 24 mg/kg): 0.625 ± 0.43 h

Amphetamine-arginine-N-methyl [Compound AM-4]
AMP Cmax ± sd ([1]; rat plasma, AM-4 IV 4.5 mg/kg (12 μmol/kg)): 17.9 ± 3.5 ng/mL | AMP Cmax ± sd [5, 6]: 1.92 ± 0.20 ng/mL | AMP Tmax ± sd [5, 6]: 1.00 ± 0.0 h

— patent US11400062B2, “Compositions comprising enzyme-cleavable amphetamine prodrugs and inhibitors thereof” (Signature Therapeutics, Inc., priority 2010, dated 2022)
